From PubChem BioAssay AID330 (DTP/NCI, 2004)
“And” between values parts separate entries of the source, which are not always exact repeats. Equal entries are not always repeated. Toxic doses and inconclusive results are not listed. Rule for the calls: active = survival T/C of 150% or more; inactive = T/C below 125% in these data.

System: P388 leukemia ip, CD2F1 mice, survival T/C
Assay: NCI In Vivo Anticancer Drug Screen. Data for tumor model P388 Leukemia (intraperitoneal) in CD2F1 (CDF1) mice
Settings: endpoint: median survival time, higher = longer survival
Procedure, shortened: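 Mice carrying the transplanted tumor received test compound or vehicle. Survival was recorded in each group, and the value is the treated-group measurement divided by that of the vehicle-treated control group.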

[1] = dose: 50.0 mg/kg/injection, schedule: Q01DX005 (ip), vehicle: Klucel (hydroxypropylcellulose) (HPC)
[2] = dose: 100.0 mg/kg/injection, schedule: Q01DX005 (ip), vehicle: Klucel (hydroxypropylcellulose) (HPC)
[3] = dose: 200.0 mg/kg/injection, schedule: Q01DX005 (ip), vehicle: Klucel (hydroxypropylcellulose) (HPC)
[4] = dose: 100.0 mg/kg/injection, schedule: Q01DX009 (ip), vehicle: saline with Tween-80
[5] = dose: 200.0 mg/kg/injection, schedule: Q01DX009 (ip), vehicle: saline with Tween-80
[6] = dose: 400.0 mg/kg/injection, schedule: Q01DX009 (ip), vehicle: saline with Tween-80
[7] = dose: 50.0 mg/kg/injection, schedule: Q01DX005 (ip), vehicle: saline with Tween-80
[8] = dose: 100.0 mg/kg/injection, schedule: Q01DX005 (ip), vehicle: saline with Tween-80
[9] = dose: 60.0 mg/kg/injection, schedule: Q01DX005 (ip), vehicle: saline with Tween-80
[10] = dose: 120.0 mg/kg/injection, schedule: Q01DX005 (ip), vehicle: saline with Tween-80

Measured: T/C

O=c1[nH]c(=O)c2nc3cc(Cl)ccc3nc2[nH]1
inactive: [1] 116 % of control | [2] 104 % of control | [3] 99 % of control

CN(C)Cc1cc(CN(C)C)c(O)c(CN(C)C)c1
inactive: dose: 50.0 mg/kg/injection, schedule: Q01DX009 (ip), vehicle: saline with Tween-80 88 % of control | [4] 93 % of control

C=C(C)COc1ccc(C)cc1
inactive: dose: 25.0 mg/kg/injection, schedule: Q01DX009 (ip), vehicle: other 108 % of control | dose: 50.0 mg/kg/injection, schedule: Q01DX009 (ip), vehicle: other 104 % of control | dose: 100.0 mg/kg/injection, schedule: Q01DX009 (ip), vehicle: other 110 % of control

COc1ccc(NC(=O)Oc2ccc3c(C)cc(=O)oc3c2)c(OC)c1
inactive: [4] 122 % of control | [5] 121 % of control | [6] 91 % of control

O=C(NCCN1CCN2Cc3[nH]c4ccccc4c3CC2C1)c1ccc([N+](=O)[O-])cc1 (centres undefined)
inactive: dose: 100.0 mg/kg/injection, schedule: Q04DX002 (ip), vehicle: saline with Tween-80 96 % of control | dose: 200.0 mg/kg/injection, schedule: Q04DX002 (ip), vehicle: saline with Tween-80 87 % of control | dose: 400.0 mg/kg/injection, schedule: Q04DX002 (ip), vehicle: saline with Tween-80 86 % of control

COC(=O)C(N)CCl (centres undefined)
inactive: dose: 12.5 mg/kg/injection, schedule: Q01DX009 (ip), vehicle: water 91 % of control | dose: 25.0 mg/kg/injection, schedule: Q01DX009 (ip), vehicle: water 92 % of control | dose: 50.0 mg/kg/injection, schedule: Q01DX009 (ip), vehicle: water 90 % of control | dose: 100.0 mg/kg/injection, schedule: Q01DX009 (ip), vehicle: water 99 % of control | dose: 200.0 mg/kg/injection, schedule: Q01DX009 (ip), vehicle: water 90 % of control

COc1cc2c(cc1OC)[C@H]1[C@H](CO)c3ccc4c(c3CN1CC2)OCO4
inactive: dose: 12.5 mg/kg/injection, schedule: Q01DX005 (ip), vehicle: Klucel (hydroxypropylcellulose) (HPC) 100 % of control | dose: 25.0 mg/kg/injection, schedule: Q01DX005 (ip), vehicle: Klucel (hydroxypropylcellulose) (HPC) 96 % of control | [1] 94 % of control and 96 % of control

CC[P+](CC)(c1ccccc1)c1ccccc1
inactive: dose: 3.12 mg/kg/injection, schedule: Q01DX005 (ip), vehicle: saline 94 % of control | dose: 6.25 mg/kg/injection, schedule: Q01DX005 (ip), vehicle: saline 95 % of control | dose: 12.5 mg/kg/injection, schedule: Q01DX005 (ip), vehicle: saline 100 % of control

CCCCCCCCCCCC(=O)c1c(O)c2ccccc2oc1=O
inactive: [7] 95 % of control | [8] 94 % of control

COc1cc(N)ccc1NC(=O)c1ccccc1
inactive: dose: 6.25 mg/kg/injection, schedule: Q01DX009 (ip), vehicle: saline with Tween-80 109 % of control | dose: 12.5 mg/kg/injection, schedule: Q01DX009 (ip), vehicle: saline with Tween-80 100 % of control

CC1NS(=O)(=O)c2ccccc2C1=O (centres undefined)
inactive: dose: 100.0 mg/kg/injection, schedule: Q04DX003 (ip), vehicle: saline 100 % of control | dose: 200.0 mg/kg/injection, schedule: Q04DX003 (ip), vehicle: saline 101 % of control | dose: 400.0 mg/kg/injection, schedule: Q04DX003 (ip), vehicle: saline 108 % of control

NC(=O)c1ccc[n+](Cc2ccccc2)c1
inactive: dose: 12.5 mg/kg/injection, schedule: Q01DX009 (ip), vehicle: Klucel (hydroxypropylcellulose) (HPC) 110 % of control | dose: 25.0 mg/kg/injection, schedule: Q01DX009 (ip), vehicle: Klucel (hydroxypropylcellulose) (HPC) 91 % of control | dose: 50.0 mg/kg/injection, schedule: Q01DX009 (ip), vehicle: Klucel (hydroxypropylcellulose) (HPC) 112 % of control | dose: 100.0 mg/kg/injection, schedule: Q01DX009 (ip), vehicle: Klucel (hydroxypropylcellulose) (HPC) 93 % of control

CCCCCOc1cc2c(cc1C(C)c1ccc(OC)cc1)OCO2 (centres undefined)
inactive: [1] 107 % of control | [2] 103 % of control | [3] 98 % of control

CCN(CC)c1ccc2cc(-n3nnc4ccccc43)c(=O)oc2c1
inactive: [9] 96 % of control | [10] 96 % of control | dose: 240.0 mg/kg/injection, schedule: Q01DX005 (ip), vehicle: saline with Tween-80 99 % of control

CCC1(c2ccccc2)CCC(C#N)C1=N (centres undefined)
inactive: dose: 100.0 mg/kg/injection, schedule: Q01DX001 (ip), vehicle: Klucel (hydroxypropylcellulose) (HPC) 102 % of control | dose: 200.0 mg/kg/injection, schedule: Q01DX001 (ip), vehicle: Klucel (hydroxypropylcellulose) (HPC) 100 % of control | dose: 400.0 mg/kg/injection, schedule: Q01DX001 (ip), vehicle: Klucel (hydroxypropylcellulose) (HPC) 98 % of control

OC1N2CCSC2=NC1(c1ccccc1)c1ccccc1 (centres undefined)
inactive: dose: 18.75 mg/kg/injection, schedule: Q04DX003 (ip), vehicle: Klucel (hydroxypropylcellulose) (HPC) 107 % of control | dose: 37.5 mg/kg/injection, schedule: Q04DX003 (ip), vehicle: Klucel (hydroxypropylcellulose) (HPC) 95 % of control | dose: 75.0 mg/kg/injection, schedule: Q04DX003 (ip), vehicle: Klucel (hydroxypropylcellulose) (HPC) 100 % of control | dose: 150.0 mg/kg/injection, schedule: Q04DX003 (ip), vehicle: Klucel (hydroxypropylcellulose) (HPC) 110 % of control | dose: 300.0 mg/kg/injection, schedule: Q04DX003 (ip), vehicle: Klucel (hydroxypropylcellulose) (HPC) 93 % of control

CCOC(=O)NCCF
inactive: dose: 0.78 mg/kg/injection, schedule: Q01DX009 (ip), vehicle: saline 96 % of control | dose: 1.56 mg/kg/injection, schedule: Q01DX009 (ip), vehicle: saline 101 % of control | dose: 3.12 mg/kg/injection, schedule: Q01DX009 (ip), vehicle: saline 101 % of control

c1ccc(Cc2ccc[nH]2)cc1
inactive: dose: 100.0 mg/kg/injection, schedule: Q01DX001 (ip), vehicle: distilled water + alcohol 100 % of control | dose: 200.0 mg/kg/injection, schedule: Q01DX001 (ip), vehicle: distilled water + alcohol 98 % of control | dose: 400.0 mg/kg/injection, schedule: Q01DX001 (ip), vehicle: distilled water + alcohol 112 % of control

O=C1Cc2ccccc2C(c2ccc(Cl)cc2Cl)N1 (centres undefined)
inactive: dose: 50.0 mg/kg/injection, schedule: Q01DX009 (ip), vehicle: saline 98 % of control | dose: 100.0 mg/kg/injection, schedule: Q01DX009 (ip), vehicle: saline 98 % of control | dose: 200.0 mg/kg/injection, schedule: Q01DX009 (ip), vehicle: saline 100 % of control

CCCCC(NC(=O)OCc1ccccc1)C(=O)NC(CC(C)C)C(=O)O (centres undefined)
inactive: [1] 100 % of control | [2] 100 % of control | [3] 92 % of control

O=C1OCC=C1Sc1ccccc1
inactive: [9] 106 % of control | [10] 108 % of control

Cc1csc2cc(Br)c3ccccc3c12
inactive: dose: 100.0 mg/kg/injection, schedule: Q01DX001 (ip), vehicle: saline with Tween-80 101 % of control | dose: 200.0 mg/kg/injection, schedule: Q01DX001 (ip), vehicle: saline with Tween-80 103 % of control

C/C(=C\c1ccc([N+](=O)[O-])cc1)C(=O)N1CCCCC1
inactive: [1] 105 % of control | [2] 96 % of control | [3] 96 % of control

CCCC1OC(/C=C/c2ccccc2)OCC1CC (centres undefined)
inactive: [4] 101 % of control and 108 % of control and 109 % of control | [5] 101 % of control and 116 % of control (2×) | [6] 116 % of control and 120 % of control

CCCCCCCCC1(O)OC(=O)C(C)=C1C (centres undefined)
inactive: dose: 12.5 mg/kg/injection, schedule: Q04DX003 (ip), vehicle: saline with Tween-80 100 % of control | dose: 25.0 mg/kg/injection, schedule: Q04DX003 (ip), vehicle: saline with Tween-80 100 % of control | dose: 50.0 mg/kg/injection, schedule: Q04DX003 (ip), vehicle: saline with Tween-80 103 % of control

CC1(C(=O)O)C2[Se]c3[se]ccc3C2C1(C)C(=O)O (centres undefined)
inactive: [7] 104 % of control | [8] 96 % of control | dose: 200.0 mg/kg/injection, schedule: Q01DX005 (ip), vehicle: saline with Tween-80 102 % of control

O=C(O)CNC(=O)Cc1cccc2ccccc12
inactive: [1] 102 % of control | [2] 98 % of control | [3] 95 % of control

N=C(N)c1ccc2oc(CCc3cc4ccc(C(=N)N)cc4[nH]3)cc2c1
inactive: dose: 3.12 mg/kg/injection, schedule: Q04DX003 (ip), vehicle: suspension in saline 100 % of control | dose: 6.25 mg/kg/injection, schedule: Q04DX003 (ip), vehicle: suspension in saline 113 % of control | dose: 12.5 mg/kg/injection, schedule: Q04DX003 (ip), vehicle: suspension in saline 110 % of control
